Residues, ends and D or L forms follow the SMILES beside them.
How the values were obtained:
[1] = tested on: NO production induced by TLR-2 agonist R-FSL-1 in J774 cells; test: Nitrite (NO) production induced by TLR-2 agonist R-FSL-1 in J774 cells; assay type: cell-based; conditions: 10^−6 M, 2 hr pre-exposure; R-FSL-1 300 ng/mL 17 hr
Procedure: J774 cells (ATCC passage 10 to 15) were cultured (2×10^5 cells/ml) in 24-well plates (Costar 3524 NY) in DMEM supplemented with FBS (10%).Three hours after plating, cell culture medium was replaced with 0.5 mL of the same medium containing 10^−6M of imidazolones derivatives for 2 hr pretreatment. Cells were then exposed to R-FSL1 (300 ng/ml) for 17 hr at 37° C. Cell culture media were collected and aliquots (10 μL) were mixed with 10 μL of 2,3 diaminonapthalene reagent (0.05 mg/mL in HCl 0.62M) for nitrite levels determination by fluorescence (λexc 365 nm and λem 430 nm) (Misko et al. (1993) Anal Biochem, 214, 11-16).

[2] = molecular target: T1, recombinant soluble His-tagged CD36 (Homo sapiens, UniProt P16671); test: SPR spectroscopy binding to CD36; conditions: for Kd: SPR response for ligand 100 nM to 30 μM fitted to Langmuir isotherm; for SPR ΔλSPR (nm): SPR response on CD36 functionalized surface
T1 construct: recombinant soluble His-tagged CD36 functionalized surface
T1 sequence (P16671 30-439 limits assumed): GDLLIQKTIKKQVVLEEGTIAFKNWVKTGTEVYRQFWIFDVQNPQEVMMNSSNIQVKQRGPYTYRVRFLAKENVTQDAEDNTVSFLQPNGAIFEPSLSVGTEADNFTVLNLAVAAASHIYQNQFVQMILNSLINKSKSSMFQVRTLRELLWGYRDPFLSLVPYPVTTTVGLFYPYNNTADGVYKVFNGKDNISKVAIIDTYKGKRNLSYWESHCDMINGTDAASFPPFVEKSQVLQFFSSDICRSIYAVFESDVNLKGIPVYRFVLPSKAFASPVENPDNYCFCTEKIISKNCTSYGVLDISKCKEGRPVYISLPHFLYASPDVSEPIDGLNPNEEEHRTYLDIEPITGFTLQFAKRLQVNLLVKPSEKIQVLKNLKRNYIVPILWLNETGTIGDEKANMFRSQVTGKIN
Procedure: The affinity of the small peptide ligand binding to a recombinant soluble His-tagged CD36 functionalized surface was screened by SPR sensing as previously described (Bolduc, O. R.; Lambert-Lanteigne, P.; Colin, D. Y.; Zhao, S. S.; Proulx, C.; Boeglin, D.; Lubell, W. D.; Pelletier, J. N.; Féthière, J.; Ong, H.; Masson, J.-F. Analyst. 2011, 136, 3142-3148). Briefly, the SPR sensors were prepared by immobilizing the His-tagged CD36 to 3-mercaptopropionyl-leucinyl-histidinyl-aspartyl-leucinyl-histidinyl-aspartic acid (3-Mpa-LHDLHD) with Nα,Nα-bis(carboxymethyl)-L-lysine at the C-terminus, a modified peptide monolayer competent to bind His-tagged biomolecules. A calibration curve of the SPR response for ligand concentrations ranging from 100 nM to 30 μM was fitted to the Langmuir isotherm (Equation 1) to determine K (K=1/Kd) for the CD36-ligand system. ΔλSPR=(K[ligand])ΔλSPRmax(1+K[ligand])^−1 (1)

[3] = tested on: MAP kinase JNK phosphorylation induced by POVPC in RAW 264.7 murine macrophage cells; test: JNK assay: POVPC-induced JNK phosphorylation in RAW 264.7 macrophages; assay type: cell-based; conditions: for EC50: 2 h pre-treatment 10^−9 to 10^−6 M, then 10 μg/mL POVPC 30 min, phospho-JNK/total-JNK ratio, read-out: JNK-kinase cellular assay EC50; for inhibitory activity on MAP kinase JNK phosphorylation relative to [azaTyr^4]GHRP-6, in words: POVPC-stimulated RAW 264.7 cells
Procedure: RAW264.7 murine macrophage cells (American Type Culture Collection, Manassas, Va.) pre-treated with N-amino-imidazolin-2-one peptide for 2 h at concentration varying from 10^−9 to 10^−6 M were stimulated with 10 μg/mL POVPC (Cayman chemical, Ann Arbor, Mich.) for 30 min at 37° C. Cells were lysed on ice and centrifuged at 12,000×g. Aliquots of the resulting supernatant (30 μg of protein) were analyzed on SDS-PAGE and electrotransferred on nitrocellulose membrane. The revelation was performed by incubating the membrane with primary antibody against phospho-JNK or total-JNK (Cell signalling, Pickering, Canada) (1:500) overnight and with secondary HRP-conjugated goat anti-rabbit IgG antibody (Jackson Immunoresearch Laboratories Inc., West Grove, Pa.) (1:10,000) for 1 h. Membrane was visualized by chemiluminescence and intensity of bands was measured with Image Quant software (Molecular Dynamics, Sunnyvale, Calif.). The ratio of phospho-JNK/total-JNK was used to determine the phosphorylation state of JNK modulated by the tested peptide.
RAW 264.7 murine macrophage cells were seeded at 2×10^6 cells/well in a 6-well plate and starved in serum-free media overnight at 37° C. Cells were first pre-treated with the N-amino-imidazolin-2one peptide mimic at concentrations ranging from 10^−9 to 10^−6 M for 2 h and then stimulated with 10 μg/mL POVPC (Cayman chemical, Ann Arbor, Mich.) for 30 min at 37° C. Medium was then removed and cell plates were immediately frozen at −80° C. Cells were then scrapped into 100 μl of RIPA (50 mM Tris-HCl pH 7.5, 150 mM NaCl, 1% Triton X™-100, 0.1% SDS, 25 mM NaF) containing 1 mM PMSF and 1 mM Na3VO4, and incubated on ice for 30 min. The soluble fractions were isolated by centrifugation at 12,000×g for 30 min. The supernatant was collected and proteins were assayed with BCA reagent. Aliquots ([…]) were analyzed on 10% SDS-PAGE and electrotransferred on nitrocellulose membrane. Membrane was blocked with 5% BSA in TBS-T and incubated overnight with primary antibody against phospho-JNK or total-JNK (1:500) (Cell signalling, Pickering, Canada) in 5% BSA TBS-T. The membranes were then washed 5 times with TBS-T and incubated with secondary HRP-conjugated goat anti-rabbit IgG antibody (1:10,000) in 5% BSA TBS-T for 1 h at room temperature. The reaction was visualized by chemiluminescence using SuperSignal™ West Dura (Thermo scientific, Rockford, Ill.) and signals analyzed with Chemilmager™ 5500 (Alpha Innotech, San Leandro, Calif.). The intensity of each band was measured by densitometry using Image Quant™ software (Molecular Dynamics, Sunnyvale, Calif.) and the phosphorylation state was determined from the intensity ratio of phospho-JNK/total-JNK. To determine IC50 of inhibition curves, intensity ratio data were plotted using Prism™ 4 software (GraphPad, La Jolla, Calif.).

human TF-1 cells = test: IL-1β-induced thymocyte (TF-1) proliferation, CyQUANT NF dye; assay type: cell-based; conditions: peptide 1 μM; human IL-1β 25 ng/mL; 48 h
Procedure: Immune cell proliferation was assessed by DNA intercalation of CyQUANT NF® fluorescent dye (Invitrogen, Carlsbad, Calif., USA). Essentially, human TF-1 cells (CRL-2003, American Type Culture Collection) were cultured in complete RPMI 1640 (WISENT Inc., Montréal, Quebec, Canada) supplemented with human GM-CSF (2 ng/ml, PeptroTech, Rocky Hill, N.J., USA). Cells (passage 5 and at least 85% viable, as verified by trypan blue dying) were reincorporated into RPMI 1640 medium deprived of phenol red (Gibco Invitrogen®, Carlsbad, Calif., USA) and of growth factors [i.e. fetal bovine serum (FBS) and GM-CSF] for 18 h and split (5×10^3 cells in 200 μL/well) into 96-well non-adherent flat bottom culture plates (Sarstedt®, Nümbrecht, Germany). Following 15 min pre-incubation with peptide or peptidomimetic (1 μM), the cells were treated with human IL-1β (25 ng/mL, PeproTech®, Rocky Hill, N.J., USA) and re-incubated. After 48 h, the cells were centrifuged for 7 min at 300 g, reincorporated into Hank's Buffered Salt Solution (1×HBSS, 50 μL/well, Gibco Invitrogen®, Carlsbad, Calif., USA) and transferred into a 96-well polystyrene black plate (Corning Incorporated, Corning, N.Y., USA). An additional 50 μL solution made of CyQUANT NF® dye (component A, 1×) and CyQUANT NF™ delivery agent (component B, 1×) in 1×HBSS was added to the cells in each well, which were covered with aluminum foil and incubated for 45 min. Fluorescence intensity was measured using a microplate reader (Perkin Elmer Wallac Envision® 2104; Perkin Elmer®, California, USA) with excitation at 485 nm and emission detection at 530 nm (FITC 485 and FITC 531 filters, respectively). Hexaplicate experiments were repeated three times and results were analyzed by one-way analysis of variance (ANOVA) factoring for treatments, and data are presented as mean±standard error of the mean (SEM).

Compound: Cc1c(-c2ccccc2)n(NC(=O)[C@H](C)NC(=O)[C@@H](Cc2c[nH]c3ccccc23)NC(=O)[C@@H](N)Cc2cnc[nH]2)c(=O)n1C(Cc1ccccc1)C(=O)N[C@@H](CCCCN)C(N)=O (mixture of isomers) [DNDB3-01, His-D-Trp-Ala-(N-amino-4-methyl-5-phenyl-imidazolin-2-one)-DL-Phe-Lys-NH2]
- effect on nitrite/NO production induced by R-FSL-1, in words [1]: comparable to that of EP80317

Compound: Cc1ccc(-c2c(C)n(C(Cc3ccccc3)C(=O)N[C@@H](CCCCN)C(N)=O)c(=O)n2NC(=O)[C@H](C)NC(=O)[C@@H](Cc2c[nH]c3ccccc23)NC(=O)[C@@H](N)Cc2cnc[nH]2)cc1 (mixture of isomers) [DNDB3-03, His-D-Trp-Ala-(N-amino-4-methyl-5-p-toluoyl-imidazol-2-one)-DL-Phe-Lys-NH2]
- effect on nitrite/NO production induced by R-FSL-1, in words [1]: comparable to that of EP80317

Compound: Cc1cn(NC(=O)[C@H](C)NC(=O)[C@@H](Cc2c[nH]c3ccccc23)NC(=O)[C@@H](N)Cc2c[nH]cn2)c(=O)n1C(Cc1ccccc1)C(=O)N[C@@H](CCCCN)C(N)=O (stereo partly drawn) [31a, His-D-Trp-Ala-(N-amino-4-methyl-imidazolin-2-one)-D-Phe-Lys-NH2]
- Kd [2]: 4.9 µM
- SPR ΔλSPR (nm) [2]: 1.1 nm
- EC50 [3]: 0.0554 µM
- inhibitory activity on MAP kinase JNK phosphorylation relative to [azaTyr^4]GHRP-6, in words [3]: increased inhibitory activity

Compound: C[C@H](NC(=O)[C@@H](Cc1c[nH]c2ccccc12)NC(=O)[C@@H](N)Cc1c[nH]cn1)C(=O)Nn1cc(Cc2ccccc2)n([C@H](Cc2ccccc2)C(=O)N[C@@H](CCCCN)C(N)=O)c1=O [31b, His-D-Trp-Ala-(N-amino-4-benzyl-imidazolin-2-one)-D-Phe-Lys-NH2]
- affinity for the CD36 receptor relative to [azaTyr^4]GHRP-6, in words ([2]; SPR): comparable affinity
- SPR ΔλSPR (nm) [2]: 1.6 nm
- EC50 [3]: > 10 µM
- inhibitory activity on MAP kinase JNK phosphorylation relative to [azaTyr^4]GHRP-6, in words [3]: relatively lower inhibitory activity

Compound: Cc1c(-c2ccccc2)n(NC(=O)[C@H](C)NC(=O)[C@@H](Cc2c[nH]c3ccccc23)NC(=O)[C@@H](N)Cc2cnc[nH]2)c(=O)n1[C@@H](Cc1ccccc1)C(=O)N[C@@H](CCCCN)C(N)=O [DND B2-109, His-D-Trp-Ala-(N-amino-4-methyl-5-phenyl-imidazol-2-one)-L-Phe-Lys-NH2]
- effect on nitrite/NO production induced by R-FSL-1, in words [1]: comparable to that of EP80317

Compound: CC(C)C[C@@H](NC(=O)[C@@H](CCC(=O)O)NC(=O)[C@@H](C(C)C)N1CC=CCN(NC(=O)[C@@H](Cc2ccc(O)cc2)NC(=O)[C@H](N)CCCNC(=N)N)C1=O)C(=O)N[C@H](C)C(N)=O [[Nad^3]-101.10, D-Arg-D-Tyr-Nad-D-Val-D-Glu-D-Leu-D-Ala-NH2] (HELM PEPTIDE1{[dR].[dY].[CC(C)[C@H](C(=O)[*:2])N1CC=CCN(N[*:1])C1=O].[dE].[dL].[dA].[am]}$$$$V2.0)
- exacerbated proliferation over the level of exogenous IL-1β (human TF-1 cells): 53%

Compound: CC(C)C[C@@H](NC(=O)[C@@H](CCC(=O)O)NC(=O)[C@@H](C(C)C)N1CCCN(NC(=O)[C@@H](Cc2ccc(O)cc2)NC(=O)[C@H](N)CCCNC(=N)N)C1=O)C(=O)N[C@H](C)C(N)=O [[Nap^3]-101.10, D-Arg-D-Tyr-Nap-D-Val-D-Glu-D-Leu-D-Ala-NH2] (HELM PEPTIDE1{[dR].[dY].[CC(C)[C@H](C(=O)[*:2])N1CCCN(N[*:1])C1=O].[dE].[dL].[dA].[am]}$$$$V2.0)
- diminished IL-1β-induced proliferation (human TF-1 cells): 41%

Compound: C[C@H](NC(=O)[C@@H](Cc1c[nH]c2ccccc12)NC(=O)[C@@H](N)Cc1c[nH]cn1)C(=O)NN(Cc1ccc(O)cc1)C(=O)N[C@H](Cc1ccccc1)C(=O)N[C@@H](CCCCN)C(N)=O [[azaTyr^4]GHRP-6, His-D-Trp-Ala-AzaTyr-D-Phe-Lys-NH2, reference compound] (HELM PEPTIDE1{H.[dW].A.[O=C(N(Cc1ccc(O)cc1)N[*:1])[*:2]].[dF].K.[am]}$$$$V2.0)
- SPR ΔλSPR (nm) [2]: 1.8 nm
- EC50 [3]: 0.214 µM

Compound: C[C@H](NC(=O)[C@@H](Cc1c[nH]c2ccccc12)NC(=O)[C@@H](N)Cc1cnc[nH]1)C(=O)NN(Cc1ccc(O)cc1)C(=O)N[C@H](Cc1ccccc1)C(=O)N[C@@H](CCCCN)C(N)=O [[azaTyr^4]GHRP-6, His-D-Trp-Ala-AzaTyr-D-Phe-Lys-NH2, reference compound] (HELM PEPTIDE1{H.[dW].A.[O=C(N(Cc1ccc(O)cc1)N[*:1])[*:2]].[dF].K.[am]}$$$$V2.0)
- Kd [2]: 5 µM

Compound: HAlC-2MeDTrp-DLys-Trp-DPhe-Lys-NH2 [EP80317, reference compound]
- effect on nitrite/NO production induced by R-FSL-1, in words [1]: negatively modulated nitrite production

Compound: His-D-Trp-Ala-(N-amino-4-methyl-imidazolin-2-one)-D-Phe-Lys-NH2 [YGR 401-2]
- effect on nitrite/NO production induced by R-FSL-1, in words [1]: comparable to that of EP80317

Compound: His-D-Trp-Ala-(N-amino-4-methyl-imidazolin-2-one)-L-Phe-Lys-NH2 [YGR401-1]
- effect on nitrite/NO production induced by R-FSL-1, in words [1]: comparable to that of EP80317

Compound: His-azaPheAla-Trp-DPhe-Ala-NH2 [CP-1A(i), reference compound]
- effect on nitrite/NO production induced by R-FSL-1, in words [1]: did not modulate NO production

From patent US8993515B2, “Peptidomimetics comprising N-amino cyclic urea residues and uses thereof” (Valorisation-Recherche, Limited Partnership, priority 2012, dated 2015)
